Test results from PubChem BioAssay AID1918995 (Molecular Pharmacology Branch, DTP, NCI, 2023).
“And” between values parts separate entries of the source, which are not always exact repeats. Equal values may be shown once.

Test system: 324938-238-R-J1-PDC complex spheroid growth, % test/control
Test: Anticancer human tumor 324938-238-R-J1-PDC patient-derived bladder carcinoma cell line growth inhibition [AhR]
Conditions: for viability, T/C: stronger effect = lower value
Text: Multicellular complex tumor spheroid response to aryl hydrocarbon receptor antagonists in combination with a variety of drugs and investigational agents in selected tumor cell lines
The current study was undertaken to assess response to aryl hydrocarbon receptor antagonists in combination with standard-of-care drugs and investigational agents in solid tumor complex spheroid models. Complex spheroids include a stromal component modeled by human endothelial cells (HUVEC) and fibroblasts modeled by human mesenchymal stem cells (MSCs). The concentration ranges selected for each drug and investigational agent were based upon clinically achievable concentrations if the clinical Cmax of the agent was known.
Compounds. The drugs and investigational agents: BAY 2416964 (NSC825713), GNF351 (NSC835774), CH-223191 (NSC835775), CPI-455 (NSC825282), aza-TdCyd (NSC777586), decitabine (NSC127716), belinostat (NSC758774), entinostat (NSC756642), pevonedistat (NSC761192), tazemetostat (NSC777109), talazoparib (NSC765396), olaparib (NSC753686), selinexor (NSC780203), nedisertib (M3814, NSC802822), bortezomib (NSC756655), venetoclax (NSC766270), doxorubicin (NSC123127), elimusertib (BAY189344, NSC800525), ceralasertib (AZD6738, NSC777638), TAK-243 (NSC785004), alisertib (NSC759677), etoposide (NSC141540), topotecan (NSC609699), eribulin (NSC707389), gemcitabine (NSC613327), carboplatin (NSC241240), cisplatin (NSC119875), and SN-38 (NSC673596) were obtained from the National Cancer Institute (NCI) Developmental Therapeutics Program Chemical Repository (32). The FDA-approved anticancer drug set is available from the Developmental Therapeutics Program at https://dtp.cancer.gov/organization/dscb/obtaining/available plates.htm. […] The stock solutions were prepared in dimethyl sulfoxide (DMSO, Sigma-Aldrich, St. Louis, MO, cat. D2650), except for the platinum compounds which were prepared in saline (Quality Biological, Gaithersburg, MD, cat. 114-055-101), at 800-fold the tested concentration and stored at -70 degrees C prior to their use. All drugs and investigational agents were tested over a range starting from a high concentration at or near the clinical Cmax and decreasing in half-log increments. If the clinical Cmax for an agent had not been determined, the highest concentration tested was 10 microM (Table 1).
Cell Culture. All cells were maintained in an incubator at 37 degrees C and 5% CO2 with 95% humidity. The PDC lines were cultured according to standard operating procedures established by the NCI PDMR (https://pdmr.cancer.gov). Briefly, all PDCs were thawed and cultured in Matrigel-coated flasks prepared with a working solution of 1X Ham's F-12 nutrient mix, without supplementation (Invitrogen, Waltham, MA, cat. 11765054), 100 U/mL penicillin-streptomycin (Invitrogen, cat. 15140122), and 2.5% Matrigel (Corning Inc., Corning, NY, cat. 354248) for the first three passages. All PDCs were cultured in complete DMEM/F-12 media containing advanced DMEM/F-12 (Invitrogen, cat. 12634028), 4.9% defined fetal bovine serum, heat inactivated (HyClone Laboratories Inc., Logan, UT, cat. SH30070.03HI), 389 ng/mL hydrocortisone (Sigma-Aldrich, cat. H4001), 9.7 ng/mL human EGF recombinant protein (Invitrogen, cat. PHG0313), 23.4 microg/mL adenine (Sigma-Aldrich, cat. A2786), 97.3 U/mL penicillin-streptomycin (Invitrogen, cat. 15140122), 1.9 mM L-glutamine (Invitrogen, cat. 25030081), and 9.7 microM Y-27632 dihydrochloride (Tocris Bioscience, Bristol, United Kingdom, cat. 1254). The PDCs were cultured in complete DMEM/F12 media without 10 microM Y-27632 dihydrochloride for at least two passages prior to the screen. The established cell lines NCI-H1341 and […] were cultured in DMEM/F-12, HEPES (Invitrogen, cat. 11330032), 5% defined fetal bovine serum (HyClone Laboratories Inc., cat. SH30070.03), ITS premix universal culture supplement [insulin (5 microg/mL), transferrin (5 microg/mL), and selenious acid (5 ng/mL)] […]

[1] = curve of first compound, second compound 0.1 µM
[2] = curve of first compound, second compound 0.316 µM
[3] = curve of first compound, second compound 1 µM
[4] = curve of first compound, second compound 3.16 µM
[5] = curve of first compound, second compound 10 µM
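Further: spheroids exposed to agents for seven days before viability read.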

For CC1COCCN1c1cc(C2(S(C)(=N)=O)CC2)nc(-c2ccnc3[nH]ccc23)n1 (configuration not stated), the viability, T/C (compound 0.0316 µM) was 93% and 98% and 106%, the viability, T/C (compound 0.1 µM) was 114% and 112% and 116% and the viability, T/C (compound 0.316 µM) was 90% and 106% and 85.7%. For the same compound, the viability, T/C (compound 1 µM) was 93.9% and 90.2% and 86.4%, the viability, T/C (compound 3.16 µM) was 76.7% and 70.4% and 43.9% and the viability, T/C (compound 10 µM) was 77.1% and 33.6% and 25.4%. The IC50 (curve of compound) was > 10000 nM and 5910 nM and 2940 nM.

With Nc1ncn(C2CC(O)C(CO)S2)c(=O)n1 (configuration not stated) + Cc1cncc(-c2nc(NCCc3c[nH]c4ccccc34)c3ncn(C(C)C)c3n2)c1 the IC50 [1] was > 300 nM, the IC50 [2] was > 300 nM and the IC50 [3] was > 300 nM. For the same compound, the IC50 [4] was > 300 nM, the IC50 [5] was < 0.949 nM and the viability, T/C (second compound 0.1 µM, first compound 0.000949 µM) was 122%. For the same compound, the viability, T/C (second compound 0.1 µM, first compound 0.003 µM) was 113%, the viability, T/C (second compound 0.1 µM, first compound 0.00949 µM) was 122% and the viability, T/C (second compound 0.1 µM, first compound 0.03 µM) was 95.6%. It also gave a viability, T/C (second compound 0.1 µM, first compound 0.0949 µM) of 118%, a viability, T/C (second compound 0.1 µM, first compound 0.3 µM) of 126% and a viability, T/C (second compound 0.316 µM, first compound 0.000949 µM) of 113%. The viability, T/C (second compound 0.316 µM, first compound 0.003 µM) was 102%, the viability, T/C (second compound 0.316 µM, first compound 0.00949 µM) was 114% and the viability, T/C (second compound 0.316 µM, first compound 0.03 µM) was 99%. For the same compound, the viability, T/C (second compound 0.316 µM, first compound 0.0949 µM) was 129%, the viability, T/C (second compound 0.316 µM, first compound 0.3 µM) was 130% and the viability, T/C (second compound 1 µM, first compound 0.000949 µM) was 92.1%. It also gave a viability, T/C (second compound 1 µM, first compound 0.003 µM) of 134%, a viability, T/C (second compound 1 µM, first compound 0.00949 µM) of 103% and a viability, T/C (second compound 1 µM, first compound 0.03 µM) of 111%. For the same compound, the viability, T/C (second compound 1 µM, first compound 0.0949 µM) was 131%, the viability, T/C (second compound 1 µM, first compound 0.3 µM) was 126% and the viability, T/C (second compound 3.16 µM, first compound 0.000949 µM) was 113%. The viability, T/C (second compound 3.16 µM, first compound 0.003 µM) was 99.5%, the viability, T/C (second compound 3.16 µM, first compound 0.00949 µM) was 130% and the viability, T/C (second compound 3.16 µM, first compound 0.03 µM) was 98.2%. The viability, T/C (second compound 3.16 µM, first compound 0.0949 µM) was 94.9%, the viability, T/C (second compound 3.16 µM, first compound 0.3 µM) was 120% and the viability, T/C (second compound 10 µM, first compound 0.000949 µM) was 12.2%. The viability, T/C (second compound 10 µM, first compound 0.003 µM) was 16.9%, the viability, T/C (second compound 10 µM, first compound 0.00949 µM) was 9.06% and the viability, T/C (second compound 10 µM, first compound 0.03 µM) was 13.4%. For the same compound, the viability, T/C (second compound 10 µM, first compound 0.0949 µM) was 11.2% and the viability, T/C (second compound 10 µM, first compound 0.3 µM) was 10.7%.

Work on CC[C@@]1(O)C(=O)OCc2c1cc1n(c2=O)Cc2cc3c(CN(C)C)c(O)ccc3nc2-1 + Cc1ccccc1N=Nc1ccc(NC(=O)c2ccnn2C)c(C)c1 yielded an IC50 [1] of 19.6 nM, an IC50 [2] of 20.7 nM and an IC50 [3] of 18.5 nM. For the same compound, the IC50 [4] was 17 nM, the IC50 [5] was 20 nM and the viability, T/C (second compound 0.1 µM, first compound 0.000316 µM) was 102%. The viability, T/C (second compound 0.1 µM, first compound 0.001 µM) was 107%, the viability, T/C (second compound 0.1 µM, first compound 0.00316 µM) was 88.9% and the viability, T/C (second compound 0.1 µM, first compound 0.01 µM) was 74.6%. For the same compound, the viability, T/C (second compound 0.1 µM, first compound 0.0316 µM) was 32.8%, the viability, T/C (second compound 0.1 µM, first compound 0.1 µM) was 16.2% and the viability, T/C (second compound 0.316 µM, first compound 0.000316 µM) was 91.9%. The viability, T/C (second compound 0.316 µM, first compound 0.001 µM) was 101%, the viability, T/C (second compound 0.316 µM, first compound 0.00316 µM) was 94.8% and the viability, T/C (second compound 0.316 µM, first compound 0.01 µM) was 70.7%. It also gave a viability, T/C (second compound 0.316 µM, first compound 0.0316 µM) of 38.1%, a viability, T/C (second compound 0.316 µM, first compound 0.1 µM) of 17.4% and a viability, T/C (second compound 1 µM, first compound 0.000316 µM) of 86.8%. It also gave a viability, T/C (second compound 1 µM, first compound 0.001 µM) of 98.5%, a viability, T/C (second compound 1 µM, first compound 0.00316 µM) of 86.6% and a viability, T/C (second compound 1 µM, first compound 0.01 µM) of 66%. For the same compound, the viability, T/C (second compound 1 µM, first compound 0.0316 µM) was 36%, the viability, T/C (second compound 1 µM, first compound 0.1 µM) was 15.7% and the viability, T/C (second compound 3.16 µM, first compound 0.000316 µM) was 86.2%. For the same compound, the viability, T/C (second compound 3.16 µM, first compound 0.001 µM) was 86.3%, the viability, T/C (second compound 3.16 µM, first compound 0.00316 µM) was 87% and the viability, T/C (second compound 3.16 µM, first compound 0.01 µM) was 61.9%. For the same compound, the viability, T/C (second compound 3.16 µM, first compound 0.0316 µM) was 34.7%, the viability, T/C (second compound 3.16 µM, first compound 0.1 µM) was 15.6% and the viability, T/C (second compound 10 µM, first compound 0.000316 µM) was 83.9%. For the same compound, the viability, T/C (second compound 10 µM, first compound 0.001 µM) was 88.3%, the viability, T/C (second compound 10 µM, first compound 0.00316 µM) was 73.6% and the viability, T/C (second compound 10 µM, first compound 0.01 µM) was 63.9%. It also gave a viability, T/C (second compound 10 µM, first compound 0.0316 µM) of 41.3% and a viability, T/C (second compound 10 µM, first compound 0.1 µM) of 18.7%.
